In US20140024663A1, “ATB(0,+) AMINO ACID TRANSPORTER AS A DRUG TARGET FOR TREATMENT OF ESTROGEN RECEPTOR-POSITIVE BREAST CANCER” (GEORGIA HEALTH SCIENCES UNIVERSITY RESEARCH INSTITUTE, INC., priority 2012, published 2014):

Columns and labels:
MCF7 cells [1] = experiment: Apoptotic cell death by annexin V labeling; type: cell-based, human; settings: MCF7, single agent (α-MT 2.5 mM or 3-MA 10 mM), 48 h
Protocol: (§1) FIGS. 9A to 9D. Influence of α-MT on mTOR activity In FIG. 9A, MCF7 and MB231 cells were treated without or with α-MT (2.5 mM) for 24 h, 48 h, or 72 h, and then the cell lysates were used for western blot. Influence of α-MT with or without 3-MA on cell death. In FIG. 9B, MCF7, MB231, and MCF10A cells were treated for 48 h without or with α-MT (2.5 mM), 3-MA (10 mM), or α-MT (2.5 mM) plus 3-MA (10 mM), and then analyzed for cell death by propidium iodide (PI) staining and FACS-based cell cycle analysis. In FIG. 9C, MCF7 cells were treated for 48 h without or with α-MT (2.5 mM), 3-MA (10 mM), or α-MT (2.5 mM) plus 3-MA (10 mM), and then analyzed for apoptotic cell death by annexin V labeling. In FIG. 9D, MCF7 and MB231 cells were treated without or with 2.5 mM α-MT for 24 h, 48 h, or 72 h. Cell lysates were then used for western blot analysis of lamin A degradation product using an antibody that recognizes specifically the proteolytic cleavage product. β-Actin was used as an internal control.
(§2) Apoptosis assay. Fluorescence-activated cell sorting (FACS) was used to monitor cell death. MCF7 cells were treated with or without α-MT, 3-MA, or α-MT plus 3-MA. Control and treated cells were then fixed in 50% ethanol, treated with 0.1% sodium citrate, 1 mg/ml RNase A, and 50 μg/ml propidium iodide, and then subjected to FACS analysis (FACS Caliber, Becton Dickinson). FITC-labeled annexin V was used to differentiate apoptotic cell death from necrotic cell death.

MB231 cells [2] = experiment: Western blot of lamin A degradation product (caspase-6 substrate); type: cell-based, human; settings: SLC6A14-negative MB231 cells, α-MT 2.5 mM, identical conditions
Protocol: as §1

MCF7 cells [3] = experiment: as above; type: cell-based, human; settings: MCF7, α-MT 2.5 mM, 24, 48 or 72 h
Protocol: as §1

MB231 cells [4] = experiment: Xenograft in nude mice, tumor growth; type: in vivo, Balb/c nude mice; settings: MB231 (ER-negative), α-MT in drinking water 2 mg/ml
Protocol: (§3) FIGS. 10A to 10D. In vivo efficacy of α-MT in the treatment of ER-positive breast cancer. ZR75.1 (FIG. 10A), MCF7 (FIG. 10B), and MB-231 (FIG. 10C) cells were injected subcutaneously (sc) into Balb/c nude mice (10×10^6 cells per injection site). For MCF7 cells, slow-releasing estrogen pellets were implanted to support the tumor growth. For each cell line, the control group received water with sucrose and the treatment group received α-MT (2 mg/ml) in water with sucrose. Tumor size was measured periodically. NS, not statistically significant (p>0.05); *, p<0.005; two-tailed unpaired Student's t test. In FIG. 10D, Balb/c nude mice were divided into two groups; the control group received water with sucrose and the treatment group received α-MT (2 mg/ml) in water with sucrose for 2 weeks. Mice were then bled and α-MT in plasma was determined by HPLC. Xenograft in nude mice. Human breast cancer cells (ZR75.1, MCF7, and MB231) were injected s.c. close to the lower mammary gland on the right side of Balb/c nude mice (10×10^6 cells per injection site). Only for MCF7 cells, slow-releasing estrogen pellets were implanted to support the tumor growth. Implantation of estrogen pellets was done as follows. […] Tumor size in control and treatment groups was measured periodically by caliper and […] was calculated using the formula (width^2×length)/2.

ZR75.1 cells = experiment: Xenograft in nude mice, tumor growth; type: in vivo, Balb/c nude mice; settings: ZR75.1 (ER-positive), α-MT in drinking water 2 mg/ml
Protocol: as §3

MB231 cells [5] = experiment: Cell death by propidium iodide staining and FACS cell cycle analysis; type: cell-based, human; settings: MB231, α-MT 2.5 mM and 3-MA 10 mM, either alone or together, 48 h
Protocol: as §1, §2

MCF10A cells = experiment: as above; type: cell-based, human; settings: α-MT 2.5 mM and 3-MA 10 mM, either alone or together, 48 h
Protocol: as §1, §2

CC(N)(Cc1c[nH]c2ccccc12)C(=O)O (racemic) [α-MT, α-methyl-DL-tryptophan]
apoptotic cell death by annexin V labeling (MCF7 cells [1]): induced apoptotic cell death | apoptosis (Lamin A cleavage) (MB231 cells [2]): no evidence of apoptosis | apoptotic cell death shown by Lamin A cleavage (MCF7 cells [3]): cleavage of Lamin A | tumor growth in xenograft (MB231 cells [4]): did not affect the growth | tumor growth in xenograft (ZR75.1 cells): reduced the growth | effect on cell death (MB231 cells [5]): very little, if any, effect | effect on cell death (MCF10A cells): very little, if any, effect
